Patent US5643954A, “Method of preventing and alleviating stress in a healthy mammal in need thereof” (priority 1993, dated 1997)
Read-outs that look alike come from different tables or passages of the source.

Key:
[1] = tested on: electrical-shock-caused paroxysms
[2] = taken once or regularly (14 days)
[3] = tested on: chronic electric painful influence; settings: for daily 15% ethanol consumption: M ± m
Procedure: In the test and control groups of animals, a determination was given during 7 days to an individual daily consumption of 15% ethanol in the conditions of free choice between said 15% ethanol and water. Thereafter the young rats were subjected to quintuple electric painful influence, daily for 2 weeks, on the paws for 5 minutes, duration 1 sec.; the grown-up animals--tenfold influence for 10 minutes, duration 1 sec. […] The control group received a corresponding volume of water.

[4] = tested on: Corazol twitches; assay: comparative interaction test with Corazol, rats; format: in vivo; settings: M ± m
[5] = for Addition: after taking
From the text: A test permits evaluating the rate of counting-computing operations per unit time (in each and every minute), duration of execution of the task (time spent for adding 184 pairs of numbers), the number of mistakes, the speed of attention switching and the degree of weariness.

[6] = tested on: EEG; settings: M
[7] = tested on: chronic emotional stress; settings: 1 mg/kg tongue root; for 15% ethanol daily consumed: M ± m
From the text: It is commonly known that manipulations with animals (cell sampling, administration of substances, water included) are a unique stress factor and cause a prolonged state of excitement, disturbance, aggressiveness.

[8] = format: in vivo; settings: in vivo
[9] = tested on: acute stress action (electric painful influence)
From the text: The test and control young rats were subjected to a single electric painful influence in a matter of a second ("electric floor" 59 hertz, 35 v). […] Sixty minutes after, the behaviour of animals was investigated in the "open field" test.

[10] = tested on: Corazol convulsions; assay: testings with Corazolin (Corazol), mice; format: in vivo; settings: for Corazol latent period / Corazol life-time: M ± m
[11] = tested on: strychnine effects; settings: for Threshold doses Strychnine 0,01% solution, death of animal / Threshold doses Strychnine 0,01% solution, start of twitch: M ± m
[12] = orientation motive activity of mice, automated registration of movements; format: in vivo, mice (male); settings: for Number of movements in 10 min in register: M ± m
Procedure: Experiments were conducted in vivo on male mice weighing 18-22 g and male rats weighing 200-250 g, as well as in vitro on the isolated organs: a guinea pig's ileum and a rat's seminal effervesces.

[13] = tested on: hexenal sleep; assay: comparative interaction test with hexenal, rats; format: in vivo; settings: M ± m
[14] = tested on: hexenal effects; settings: M ± m
[15] = tested on: arecoline hyperkinesia; settings: M ± m
[16] = taken 30 minutes before an exam
[17] = 40 mg/kg week-long introduction
[18] = 200 mg/kg single administration
[19] = 30 min after taking the claimed preparation
[20] = intragastric, 20 min before Corazol, in words

aminoacetic acid [claimed preparation]
marks exceeding those of the school year [16]: 0.5-1 point
students noting disappearance of fear and internal discomfort [16]: 95%
good and excellent marks 4 and 5 (taken before an exam, chiefly in maths): 80%
Maximal electric shock death of animal ([1]; 2 mg/kg single administration): 70%
Maximal electric shock tonico-extensor phase ([1]; 2 mg/kg single administration): 100%
Maximal electric shock death of animal ([1]; 2 mg/kg week-long introduction): 60%
Maximal electric shock tonico-extensor phase ([1]; 2 mg/kg week-long introduction): 100%
Maximal electric shock death of animal ([1]; 40 mg/kg single administration): 40%
Maximal electric shock tonico-extensor phase ([1]; 40 mg/kg single administration): 100%
Maximal electric shock death of animal [1, 17]: 40%
Maximal electric shock tonico-extensor phase [1, 17]: 100%
Maximal electric shock death of animal ([1]; 80 mg/kg single administration): 40%
Maximal electric shock tonico-extensor phase ([1]; 80 mg/kg single administration): 100%
Maximal electric shock death of animal [1, 18]: 70%
Maximal electric shock tonico-extensor phase [1, 18]: 100%
activity towards electrical-shock-caused paroxysms ([1]; in words): inactive towards electrical-shock- caused paroxysms
weariness, irritation and internal unrest [2]: weariness, irritation and internal unrest significantly abate
daily 15% ethanol consumption ([3]; adult animals, 2nd week, 1 to 2 mg/kg tongue root): 3.4 ± 0.13 mL
daily 15% ethanol consumption ([3]; adult animals, 4th week (after cancellation)): 2.3 ± 0.3 mL
daily 15% ethanol consumption ([3]; adult animals, 3d week, 1 to 2 mg/kg tongue root): 2.5 ± 0.15 mL
daily 15% ethanol consumption ([3]; adult animals, Test, 1st week (before stress and administration)): 1.8 ± 0.08 mL
aggressiveness and exciteability ([3]; during the entire experiment, vs control groups): considerable reduction of aggressiveness and exciteability
alcohol motivation ([3]; rat, in vivo): diminishes the alcohol motivation of the animals
daily 15% ethanol consumption ([3]; young rats, 2nd week, 1 to 2 mg/kg tongue root): 4.4 ± 0.3 mL
daily 15% ethanol consumption ([3]; young rats, 4th week (after cancellation)): 1.6 ± 0.18 mL
daily 15% ethanol consumption ([3]; young rats, 3d week, 1 to 2 mg/kg tongue root): 2.0 ± 0.2 mL
daily 15% ethanol consumption ([3]; young rats, Test, 1st week (before stress and administration)): 2.7 ± 0.2 mL
Corazol twitches, latent period ([4]; 20 mg/kg): 41.0 ± 0.3 min
Corazol twitches, latent period ([4]; 80 mg/kg): 45.0 ± 0.9 min
Corazol twitches, latent period ([4]; 200 mg/kg): 42.5 ± 0.7 min
cases with reduced time for adding up numbers ([5]; 30 min after single dose): 79.5%
number of errors in counting ([5]; 30 min after single dose): diminishes twice
reduction of time for adding up numbers ([5]; 30 min after single dose): 1.5 to 2 min
Number of mistakes [5, 19]: 1
Those making mistakes [5, 19]: 40%
Speed of addition ([5]; 30 min after taking the claimed preparation, M ± m): 52.0 ± 1.9 pair/min
Addition ([5]; alcoholic abstinence syndrome (2nd day), M ± m): 32.0 ± 1.6 pair/min
Addition ([5]; remission period, M ± m): 51.0 ± 1.8 pair/min
Attention mobilization: reaction expression ([6]; 1,5 hrs after a dose): 2.82 arbitrary units
Eye opening-closing reaction: biopotential amplitude decline ([6]; 1,5 hrs after a dose): 25.40 mV
Eye opening-closing reaction: response ([6]; 1,5 hrs after a dose): 3.71 arbitrary units
HV-reaction (test with hyperventilation): reaction expression ([6]; 1,5 hrs after a dose): 2.07 arbitrary units
HV-reaction: after-effect ([6]; 1,5 hrs after a dose): 12.40 s
Presence of errors in count ([6]; 1,5 hrs after a dose): 28.60%
Repeated response to eye opening-closing: reaction expression ([6]; 1,5 hrs after a dose): 3.73 arbitrary units
Sonic signal count: reaction expression ([6]; 1,5 hrs after a dose): 3.64 arbitrary units
Sonic signal count: reaction suppression ([6]; 1,5 hrs after a dose): 5.79 sonic signals
Attention mobilization: reaction expression ([6]; after two-week course): 3.21 arbitrary units
Eye opening-closing reaction: biopotential amplitude decline ([6]; after two-week course): 23.60 mV
Eye opening-closing reaction: response ([6]; after two-week course): 3.07 arbitrary units
HV-reaction (test with hyperventilation): reaction expression ([6]; after two-week course): 2.64 arbitrary units
HV-reaction: after-effect ([6]; after two-week course): 20.70 s
Presence of errors in count ([6]; after two-week course): 33.00%
Repeated response to eye opening-closing: reaction expression ([6]; after two-week course): 3.00 arbitrary units
Sonic signal count: reaction expression ([6]; after two-week course): 3.79 arbitrary units
Sonic signal count: reaction suppression ([6]; after two-week course): 6.57 sonic signals
alcohol motivation [7]: considerably reduces it
15% ethanol daily consumed ([7]; 1 week): 3.6 ± 0.3 mL
15% ethanol daily consumed ([7]; 2 week): 4.0 ± 0.3 mL
15% ethanol daily consumed ([7]; 3 week): 2.3 ± 0.3 mL
15% ethanol daily consumed ([7]; 4 week): 2.7 ± 0.2 mL
sedative and synchronizing effect on EEG [8]: displaying at the same time a sedative and synchronizing effect on EEG
Intersection of a floor's center ([9]; 2 mg/kg on tongue root 20 min before electric painful influence): 0
Defecation ([9]; 2 mg/kg on tongue root 20 min before electric painful influence, M ± m): 0.4 ± 0.28
stress-protective effect ([9]; preliminarily administered): displays a stress-protective effect and considerably reduces on-stress-dependent excitement manifestations
Corazol tonico-extensor phase ([10]; 2 mg/kg intragastric): 100 min
Corazol latent period ([10]; 2 mg/kg intragastric): 39.0 ± 0.6 s
Corazol life-time ([10]; 2 mg/kg intragastric): 2.5 ± 0.7 min
Corazol tonico-extensor phase ([10]; 20 mg/kg intragastric): 80 min
Corazol latent period ([10]; 20 mg/kg intragastric): 41.0 ± 0.3 s
Corazol life-time ([10]; 20 mg/kg intragastric): 2.8 ± 0.8 min
Corazol tonico-extensor phase ([10]; 40 mg/kg intragastric): 70 min
Corazol latent period ([10]; 40 mg/kg intragastric): 49.0 ± 0.7 s
Corazol life-time ([10]; 40 mg/kg intragastric): 2.4 ± 0.7 min
Corazol tonico-extensor phase ([10]; 80 mg/kg intragastric): 70 min
Corazol latent period ([10]; 80 mg/kg intragastric): 45.0 ± 0.9 s
Corazol life-time ([10]; 80 mg/kg intragastric): 3.1 ± 0.9 min
Corazol tonico-extensor phase ([10]; 200 mg/kg intragastric): 70 min
Corazol latent period ([10]; 200 mg/kg intragastric): 42.5 ± 0.7 s
Corazol life-time ([10]; 200 mg/kg intragastric): 2.4 ± 0.5 min
latent period of Corazol convulsions [10, 20]: increased latent period of Corazol convulsions
tonico-extensor component of a twitch paroxysm [10, 20]: some depression of the tonico-extensor component of a twitch paroxysm
Threshold doses Strychnine 0,01% solution, death of animal ([11]; 2 mg/kg single administration): 0.21 ± 0.007 mL
Threshold doses Strychnine 0,01% solution, start of twitch ([11]; 2 mg/kg single administration): 0.17 ± 0.008 mL
Threshold doses Strychnine 0,01% solution, death of animal ([11]; 40 mg/kg single administration): 0.21 ± 0.005 mL
Threshold doses Strychnine 0,01% solution, start of twitch ([11]; 40 mg/kg single administration): 0.18 ± 0.007 mL
Threshold doses Strychnine 0,01% solution, death of animal ([11]; 80 mg/kg single administration): 0.18 ± 0.006 mL
Threshold doses Strychnine 0,01% solution, start of twitch ([11]; 80 mg/kg single administration): 0.17 ± 0.005 mL
Threshold doses Strychnine 0,01% solution, death of animal [11, 18]: 0.19 ± 0.006 mL
Threshold doses Strychnine 0,01% solution, start of twitch [11, 18]: 0.15 ± 0.008 mL
influence on strychnine effects ([11]; in words): does not practically influence said strychnine effects
Number of movements in 10 min in register ([12]; 2 mg/kg intraperitoneally): 371 ± 56
Number of movements in 10 min in register ([12]; 20 mg/kg intraperitoneally): 365 ± 79
Number of movements in 10 min in register ([12]; 40 mg/kg into stomach): 439 ± 70
Number of movements in 10 min in register ([12]; 40 mg/kg intraperitoneally): 324 ± 56
Number of movements in 10 min in register ([12]; 80 mg/kg intraperitoneally): 398 ± 48
Number of movements in 10 min in register ([12]; 200 mg/kg intraperitoneally): 275 ± 23
motor activity ([12]; in words): reduction of animals' motor activity
Hexanal sleep duration ([13]; 2 mg/kg): 36.0 ± 1.8 min
Hexanal sleep duration ([13]; 40 mg/kg): 32.0 ± 1.9 min
Hexanal sleep duration ([13]; 200 mg/kg): 28.0 ± 1.9 min
hexenal duration of sleep ([14]; 2 mg/kg): 36.0 ± 1.8 min
hexenal latent period ([14]; 2 mg/kg): 4.5 ± 0.3 min
hexenal duration of sleep ([14]; 40 mg/kg): 32.0 ± 1.9 min
hexenal latent period ([14]; 40 mg/kg): 4.5 ± 0.6 min
hexenal duration of sleep ([14]; 200 mg/kg): 28.0 ± 1.9 min
hexenal latent period ([14]; 200 mg/kg): 3.8 ± 0.7 min
Arecoline hyperkinesia, duration ([15]; 2 mg/kg): 16.5 ± 0.4 min
Arecoline hyperkinesia, duration ([15]; 20 mg/kg): 14.8 ± 1.2 min
Arecoline hyperkinesia, duration ([15]; 40 mg/kg): 13.8 ± 0.9 min
Arecoline hyperkinesia, duration ([15]; 80 mg/kg): 14.5 ± 0.9 min
Arecoline hyperkinesia, duration ([15]; 200 mg/kg): 15.6 ± 0.8 min
